Source: patent US20100004333A1, “COMPOSITIONS AND METHODS FOR TREATING CARDIOVASCULAR DISORDERS” (priority 2004, published 2010)
Like-named read-outs stand apart in the source and are kept apart here.

How the values were obtained:
[1] = set-up: species or system rabbits; conditions: rabbit, in vivo
Method: Rabbit aortic balloon-injury model. Four groups of male New Zealand White rabbits (1.8-2.2 kg, Merunga Farm, Coffs Harbour, Australia), matched for body weight and baseline plasma cholesterol, were fed 100 g per day of normal chow±1% probucol, 0.02% DTBP, or 0.02% BP (wt/wt) for up to nine weeks. Aortic balloon-injury (ABI) was carried out at the end of week three, resulting in complete endothelial denudation. Harvesting of aortas was done after a further 6 weeks (n=6 per group). Aortic lesion assessment was carried out at the 3rd pair of lumber arteries in NZW rabbits as described in Circulation 2003, 107:2031-2036. Statistics. Data are expressed as mean±SEM. One-way ANOVA and the student-Newman-Keul's test were used to evaluate differences between groups, with P<0.05 considered significant.
To control for probucol's cholesterol-lowering effect, the animals were matched for baseline plasma cholesterol, and fed them a limited amount (100 g/day) of standard diet±the respective drug.

[2] = system: aortic rings from rabbits; test: HOCl-induced endothelial dysfunction in aortic rings from rabbits fed supplemented diet; assay type: in vivo, New Zealand White rabbits; conditions: dietary 1% probucol, 0.2% DTBP or 0.02% BP, 4 weeks; for Relaxation to ACh of aortic rings after 400 μM HOCl: FIG. 6A; for Tissue cGMP of aortic rings after 400 μM HOCl and 1 μM ACh: FIG. 6B
Method: All other reagents were of the highest quality available. Buffers were routinely filtered, argon-flushed and stored at 4° C. prior to use. Solutions of HOCl were prepared freshly before use by diluting reagent HOCl (Aldrich) into phosphate buffer (250 mM, pH 7.0) and standardizing with ε235 nm˜100 M^−1cm^−1 (hypochlorous acid) and ε290 nm˜300 M^−1cm^−1 (hypochlorite), as described in Journal of Physical Chemistry 1966, 70:3798-3805. Animals: New Zealand White rabbits (2.5-3 kg) were obtained from a commercial farm (Wauchope, NSW Australia) and housed individually for the entire study period. […] Feed and water were provided ad libitum for a period of 4 weeks judged to be sufficient time for circulating drug levels to reach a maximum (data not shown). […] The local ethics committee approved the study. Vascular reactivity: Perfused rabbit aortas were harvested and vascular reactivity studies performed as described in Circulation 2003, 107:2031-2036. Briefly, within 2 h of isolation, ring segments ˜5 mm in length were mounted in a myobath system (World Precision Instruments, Sarasota, Fla.) containing 20 mL of Krebs solution aerated at 37° C. with 5% CO2(g), and the dilatory response of half maximally norepinephrine pre-constricted rings to incremental doses of ACh (10^−9-10^−5 mol/L) determined. Where indicated, reagent HOCl (final concentration 400 μM) was added to the Krebs solution and the rings incubated for 5 min prior to thorough washing, pre-constriction and assessment of vessel relaxation. In some studies rings were incubated with probucol or DTBP for 10 min, washed thoroughly and then exposed to HOCl prior to assessing endothelium-dependent relaxation. A maximum of three consecutive sequences of constriction/relaxation were performed for each ring. Preparation of Aortic Homogenates: Aortic Rings Used in the Vascular Function Studies were removed and immediately cut into small pieces, frozen in liquid nitrogen, and then pulverized and homogenized as described. An aliquot (50 μL) of homogenate was removed for protein determination (BCA assay, Sigma) and the remainder extracted into methanol/hexane (5:1, v/v), the resulting hexane fraction dried and the residue suspended in isopropanol for analysis of probucol and its oxidation products. For cGMP determinations, aortic segments were treated with vehicle (control) or HOCl (400 μM) before addition of 1 μM ACh in the presence of 200 μM 3-isobutyl-1-methylxanthine and measurement of cGMP in the homogenate using a kit (Cayman Chemical, Ann Arbor, Mich.). Probucol oxidation studies: Probucol is a highly lipophilic compound (partition coefficient between octanol and water=[…]) that readily distributes into lipoproteins. To mimic the biological situation, oxidation reactions were therefore performed with probucol (or DTBP) dissolved in hexane (2 mL) to which aliquots of HOCl were added to give the final concentrations indicated. The heterogeneous mixtures were shaken vigorously at 37° C. for 60 min, then placed on ice after adding 1 mL water, the hexane phase removed, dried under vacuum and resuspended in isopropanol (200 μL) for HPLC analyses (see below). The aqueous phase was analyzed for the content of sulfate anion (SO4^2−) by ion exchange chromatography (see below). Analytical analyses: Probucol, DTBP, BP and DPQ were analyzed by gradient reversed-phase HPLC and quantified by peak area comparison with authentic standards. Under the conditions used, BP, DTBP, probucol and DPQ eluted at 12.5, 19.2, 20.8 and 28.4 min, respectively. Other oxidation products resolved by this HPLC system were also quantified by peak area comparison, using analytically pure samples obtained from semi-preparative (LC-18, 20 mm×25 cm, 5 μm) fractionation of the reaction mixture. Isolated samples were dried under vacuum, re-dissolved to a known concentration and assessed for purity by analytical HPLC (LC-18, 4.6 mm×25 cm, 5 μm) in combination with mass spectrometry (see below). […]

[3] = system: heme oxygenase-1 (HO-1); test: Heme oxygenase-1 expression, mRNA and heme oxygenase activity in rabbit aorta after balloon injury; assay type: in vivo, rabbits; conditions: for Tissue levels of HO-1 mRNA / Heme oxygenase activity in aorta: 4 days after ABI; for Tissue levels of HO-1 mRNA: FIG. 16b; for Heme oxygenase activity in aorta: FIG. 16c; for HO-1 expression in the media of damaged aortas (immunohistochemistry): 4 days after balloon injury, FIG. 16a
[4] = system: New Zealand White rabbits; test: Apoptosis (TUNEL) and proliferation (PCNA) of vascular cells after aortic balloon injury in rabbits; assay type: in vivo; conditions: for Cell proliferation (PCNA+ cells): FIG. 16e; for Apoptosis (TUNEL+ cells): FIG. 16d
Text: Materials and methods were as described in Example 6, except that for some experiments, aortas were also harvested 4 days (n=8 per group) after balloon injury. Sections immediately adjacent sections to those used for lesion assessment were employed for immunohistochemistry, using CD31 (endothelium, dilution 1:50, DAKO), Mac-3 (macrophages, dilution 1:200, DAKO), PCNA (cell proliferation, dilution 1:500, DAKO) and anti-rat HO-1 monoclonal antibody (dilution 1:50, Santa Cruz) with avidin-biotin-horseradish peroxidase for signal detection (Vectorstain Elite ABC Kit, Vector Laboratories). Apoptosis was assessed using the TUNEL assay kit (Roche) according to the manufacture's instructions. Digital images were taken for quantitative morphometric analysis. Intimal, medial and Mac-3^+ areas were determined using Adobe Photoshop V6.0 by tracing. Re-endothelialization was determined in longitudinal sections as the distance of CD31^+ cells from the branch orifice using Scion Image Software (Scion, ML, USA). Total cell profiles, TUNEL^+ and PCNA^+ cells were counted manually at high magnification (40× objective).

[5] = day 4 after aortic balloon injury
[6] = day 42 after aortic balloon injury

CC(C)(C)c1cc(SSc2cc(C(C)(C)C)c(O)c(C(C)(C)C)c2)cc(C(C)(C)C)c1O [DTBP, 4,4′-dithiobis(2,6-di-tert-butyl-phenol)]
Total drug in the vessel wall ([1]; male, New Zealand White, 9 weeks): 235±64 pmol total drug per mg protein
Bioavailability relative to probucol [1]: greater bioavailability than probucol
Relaxation to ACh of aortic rings after 400 μM HOCl [2]: preserved the vascular function of isolated rings to an extent comparable to that seen with probucol
Tissue cGMP of aortic rings after 400 μM HOCl and 1 μM ACh [2]: increase in tissue cGMP
Tissue levels of HO-1 mRNA [3]: significantly increased
Heme oxygenase activity in aorta [3]: significantly increased
HO-1 expression in the media of damaged aortas (immunohistochemistry) [3]: induced HO-1 expression
Cell proliferation (PCNA+ cells) ([4]; day 4 after ABI): not day 4
Apoptosis (TUNEL+ cells) [4, 5]: significantly enhanced apoptosis
Cell proliferation (PCNA+ cells) ([4]; day 42 after ABI): significant decrease in cell proliferation
Apoptosis (TUNEL+ cells) [4, 6]: not at day 42

CC(C)(C)c1cc(-c2cc(C(C)(C)C)c(O)c(C(C)(C)C)c2)cc(C(C)(C)C)c1O [BP, 3,3′,5,5′-tetra-tert-butyl-4,4′-bisphenol]
Total drug in the vessel wall [1]: 614±258 pmol total drug per mg protein
Relaxation to ACh of aortic rings after 400 μM HOCl [2]: responded to HOCl indistinguishably from control
Tissue cGMP of aortic rings after 400 μM HOCl and 1 μM ACh [2]: ineffective
HO-1 expression in the media of damaged aortas (immunohistochemistry) [3]: but not BP, induced HO-1 expression
Apoptosis (TUNEL+ cells) [4, 5]: not BP

CC(C)(Sc1cc(C(C)(C)C)c(O)c(C(C)(C)C)c1)Sc1cc(C(C)(C)C)c(O)c(C(C)(C)C)c1 [probucol]
Total drug in the vessel wall [1]: 663±114 pmol total drug per mg protein
Relaxation to ACh of aortic rings after 400 μM HOCl [2]: retained responsiveness to ACh
Tissue cGMP of aortic rings after 400 μM HOCl and 1 μM ACh [2]: greater content of cGMP
Tissue levels of HO-1 mRNA [3]: significantly increased
Heme oxygenase activity in aorta [3]: significantly increased
HO-1 expression in the media of damaged aortas (immunohistochemistry) [3]: induced HO-1 expression
Cell proliferation (PCNA+ cells) ([4]; day 4 after ABI): not day 4
Apoptosis (TUNEL+ cells) [4, 5]: significantly enhanced apoptosis
Cell proliferation (PCNA+ cells) ([4]; day 42 after ABI): significant decrease in cell proliferation
Apoptosis (TUNEL+ cells) [4, 6]: not at day 42
